Consider one molecule from patent US20090076092A1, “METHOD FOR DISRUPTING REPRODUCTIVE PERFORMANCE OF ARTHROPODS” (priority 2006, published 2009).

Molecules are shown by their SMILES.

For assay [1], the system named is housefly, Musca domestica (L.). Description: Test A: reproductive performance of adult houseflies after spray at sub-lethal concentration. Particulars: 2 ppm spray of adults; totaled on the 8th day after treatment. Format: in vivo. The source says: For evaluating housefly, Musca domestica (L.), each test unit consisted of a pair of virgin adult female and male houseflies of similar age (±1 day). To obtain the adult flies used in the study, pupae of approximately the same age (±1 day) were separated by sex, and placed in separate containers until adults emerged.
(§1) The LC20 sub-lethal dose of Compound 2 on the housefly was estimated to be 2 ppm using probit analysis extrapolation based on the preliminary dose-response curves obtained at concentrations of 50, 100, 500 and 1000 ppm. Two treatments consisted of Compound 2 at 2 ppm and a control without test compound. Each treatment had 10 replicates.
After emergence, the adult houseflies were placed in a meshed cage and were sprayed with test solutions using a belt sprayer. Test solutions were applied using a compressed air-propelled (moving) belt sprayer equipped with an 8001E Tee Jet flat fan spray nozzle. The nozzles were positioned at about 20 cm above the test unit, and calibrated at 276 kPa to deliver volumes equivalent to 500 L/ha. […]
Observations of the number of eggs laid per adult female were made daily for 7 days. The cotton wicks containing eggs were removed daily and counted, and then kept in a growth chamber at 26° C., 75% relative humidity and 16 hours of light per day to allow egg hatching and emergence of neonates. […]

Assay [2] has as its system housefly. Description: Dose-finding test for sub-lethal dose on housefly. Format: in vivo, Musca domestica. Particulars: probit analysis extrapolation from preliminary dose-response curves at 50, 100, 500 and 1000 ppm.
From the text: (§2) The sub-lethal concentrations or doses used in the various tests for the specific pest species and populations tested in the context of the present invention were estimated from multiple-rate, dose-finding tests to determine the control rates and activity break rates. […] Therefore, depending on the target pest species, either the LC50 or a suitable concentration between LC50 and LC20 was selected as the sub-lethal dose. The specific procedures used to select the respective doses are described in each Test.
as §1

The subject of assay [3] is green peach aphid (Myzus persicae Sulzer). Description: Test B: nymph production by green peach aphid after 24 hours exposure on treated radish plants. Format: in vivo. Particulars: for Living (%) / On plant (%): 1 DAT; for Living (%): all aphids alive 24 h after treatment; for On plant (%): all aphids on the treated plant. The protocol: For evaluating reproductive performance effects on green peach aphid (Myzus persicae Sulzer), each test unit consisted of a radish plant grown in a 6 cm×6 cm square pot infested with a mixed population (nymphs and adults) of green peach aphids from a laboratory-reared culture. Each plant was infested with about 100 aphids. Test solutions were prepared and sprayed on the test plants (2 plants per treatment) as described for TEST A. Treatments included Compound 1 at 100 and 500 ppm, Compound 2 at 4 and 6 ppm, and a control without test compound.
Aphids were kept on the treated plants for 24 hours, and then only adult aphids staying on the treated plant were transferred to untreated radish plants grown singly in a 6 cm×6 cm square pots. One test unit or one replicate consisted of a single adult aphid on a radish plant in a pot. The number of nymphs in each replicate was counted 4 and 6 days after treatment. At the higher concentration of each test compound a total of 45 replicates were used, and at the lower concentration of each test compound a total of 30 replicates were used. In addition, prior to transferring aphids singly to the untreated radish plants one day after treatment (1 DAT), the total number of aphids living and those remaining on the treated plant were counted.
The results are listed in Table B. Square-root transformation was done on the number of nymphs produced per adult (female) aphid, and the data were analyzed using analysis of variance (ANOVA) and Fisher's Least Significant Difference (LSD) tests for separation of means.

For assay [4], the system named is adult thrips. Description: Previous study of adult thrips mortality. Format: in vivo, Frankliniella occidentalis. Particulars: read-out: adult mortality.
From the text: as §2
Thus, the sub-lethal concentration of Compound 2 was selected to be 10 ppm in the test treatments. Test solutions were prepared by diluting with water to the selected concentration. Treatments included Compound 2 at 10 ppm as well as a control without test compound.

The subject of assay [5] is diamondback moth (Plutella xylostella). Description: Test G: number of eggs (fecundity) of adult diamondback moth. Type of assay: in vivo. Particulars: 10 ppm, control itself gave very few eggs. The source says: For evaluating the reproductive performance effects on diamondback moth (Plutella xylostella), a minimum of 120 larvae of diamondback moth of each sex were used. Male and female individuals of late instar larvae were separated and caged in individual containers containing Chinese kale. Male diamondback moths were identified by a white dot on the abdomen at the late instar larval stage. When pupae emerged, each pupa was caged separately until it emerged as adult.
(§3) In addition, a control without test compound was included.
Groups of 40 newly emerged (<24 hours) moths of the same sex were placed inside a meshed cage. The caged adult moths were then sprayed with the test solution, using a CO2 backpack sprayer at 500 L/Ha. For the control treatment, the adults were sprayed with water at a similar spray volume. The groups of treated individuals were then transferred into a clean container with a source of adult diet (i.e. a cotton wick soaked in 10% sucrose solution). Separate containers were used for different groups of treated insects. One day after treatment, the numbers of live, moribund and dead adults were counted. One live treated male and one live treated female were placed together in a copulation cage, which was a 300 mL clear plastic cup covered with nylon screen supplied with an adult diet source of 10% sucrose solution.
Each pair of virgin adults was a replicate, and each treatment consisted of 10 to 20 replicates. Every day each pair of moths was moved to a new cup supplied with a diet of 10% sucrose solution.
The number of eggs laid per female moth was counted daily during the two days when the female moths actively produced viable eggs. The results, listed in Table G, indicate that no meaningful comparative information can be inferred, as the even the Control provided very few eggs per female moth; this indicates a systemic reproduction problem from unknown causes. However, had the Control worked, we expect to see the reproductive performance effects on diamondback moth.

For assay [6], the system named is diamondback moth. Description: Previous laboratory studies of diamondback moth mortality. Particulars: Plutella xylostella, read-out: mortality of the diamondback moth (LC20). Format: in vivo.
From the text: as §2, §3

For the molecule `CNC(=O)c1cc(C#N)cc(C)c1NC(=O)c1cc(Br)nn1-c1ncccc1Cl` [Compound 2, 3-bromo-1-(3-chloro-2-pyridinyl)-N-[4-cyano-2-methyl-6-[(methylamino)-carbonyl]phenyl]-1H-pyrazole-5-carboxamide], in assay [1], the “Mean number of neonates per female” value is recorded as 16.7. Besides, in assay [2], the LC20 sub-lethal dose is listed as 2 ppm. Besides, in assay [3] (4 and 6 ppm, one day after treatment), the “living aphids that did not stay on the plant” value is 28-48%. Besides, the entries for the “Living (%)” value in assay [3] (4 ppm) and in assay [3] (6 ppm) were 97.6% and 82.3%, respectively. Besides, the “On plant (%)” value in assay [3] (4 ppm) is given as 72.0%; in assay [3] (6 ppm), 51.1%. Besides, the “No. of nymphs (mean ± SE)” value in assay [3] (4 ppm, 6 DAT, per adult) was determined as 6.1 ± 0.6 a. Besides, the mortality (commonly the percentage killed) at 10 ppm in assay [4] was < 50%; in assay [6] it was ~20%. Also, the “No. of eggs per female moth” value in assay [5] (1 DAT) came to 0; in assay [5] (2 DAT) it was 0.2.
